Data on three compounds can be found in patent US8354447B2, “mGLU receptors antagonists for treating disorders associated with mGLU receptors including addiction and depression” (The Scripps Research Institute, priority 2002, dated 2013).

Series [1] concerns male Wistar rats. The following applies: 5 mg/kg fluoxetine alone (Harrison et al. 2001); cited from earlier work.
Series [2] deals with male Wistar rats. The series can be described thus: Reward deficits during amphetamine withdrawal (ICSS thresholds, response latencies, body weight). Particulars: for response latencies during withdrawal: 36 hr after the final amphetamine or saline injection; for return to baseline reward threshold levels before the amphetamine-withdrawing non-drug-treated rats: acute treatment prior to the 36 hr test, paroxetine 1.25 mg/kg, p-MPPI 3 mg/kg; for body weight during amphetamine withdrawal: amphetamine-exposed rats; for reward thresholds: saline-exposed animals, paroxetine 1.25 mg/kg or p-MPPI 3 mg/kg. The method, then: Male Wistar rats (Charles River, Hollister, Calif.) (300-320 g at the start of the experiments) were housed in pairs in a temperature and humidity controlled environment with a 12 hr light/dark cycle. Food and water were available ad libitum. A different set of subjects was used for each experiment. All subjects were treated in accordance with the National Institutes of Health “Guide for the Care and Use of Laboratory Animals,” and the animal facilities and the experimental protocols were in accordance with the Association for the Assessment and Accreditation of Laboratory Animal Care. Most of the behavioral testing was conducted during the light phase of the subjects' light/dark cycle, unless otherwise dictated by the experimental design due to time-course assessment of behavioral parameters. Apparatus The experimental apparatus consisted of 16 Plexiglas chambers (30.5×30×17 cm) (Med Associates Inc., St. Albans, Vt.) encased in sound-attenuating boxes (San Diego Instruments, San Diego, Calif.). Each operant chamber consisted of a stainless steel grid floor and a metal wheel manipulandum located on one wall, which required a 0.2 N force to rotate it a quarter turn. Gold-contact swivel commutators and bipolar leads connected the animals in the stimulation circuit (Plastics One, Roanoke, Va.). Brain stimulation was administered by constant current stimulators (Stimtek 1200, San Diego Instruments, San Diego, Calif.). Surgical Procedure The rats were prepared with 11 mm stainless steel bipolar electrodes (Plastics One; diameter=0.25 mm) in the posterior lateral hypothalamus (AP −0.5 mm from bregma; L±1.7 mm; DV −8.3 mm from dura, with the incisor bar set at 5 mm above the interaural line; Pellegrino et al. 1979 under halothane anaesthesia (1-1.5% halothane/oxygen mixture). Subjects were allowed to recover for at least seven days before any behavioral testing. Half of the electrodes were positioned on the right hemisphere and the other half on the left hemisphere to counterbalance possible brain asymmetries. […] The subjects were initially trained to turn the wheel manipulandum on a fixed ratio 1 schedule of reinforcement. […] The current intensity delivered was adjusted for each animal and typically ranged from 100 to 200 μA. After successful familiarization with this procedure (2 sessions of 100 reinforcers in less than 20 minutes), the rats were gradually trained on a discrete-trial, current-threshold procedure. At the start of each trial rats received a non-contingent electrical stimulus. During the following 7.5 sec, the limited hold, if the subjects responded by turning the wheel manipulandum a quarter turn (positive response) they received a second, contingent stimulus identical to the previous non-contingent stimulus. During a 2 sec period immediately following a positive response, further responses were recorded as extra responses but had no consequence. If no response occurred during the 7.5 sec limited hold period a negative response was recorded. […] Stimulation intensities were varied according to the classical psychophysical method of limits. The subjects received four alternating series of ascending and descending current intensities starting with a descending series. Within each series the stimulus intensity was altered by 5 μA steps between each set of trials (three trials per set). After training in the above procedure, rats were tested until stable baseline thresholds had been achieved L+10% over a 5-day period). […] During the ascending series, the reverse situation defined the threshold. Thus, during each session, four current-thresholds were recorded and the mean of these values was taken as the current-threshold for each subject for each test session. Response Latency: The latency between the onset of the non-contingent stimulus and a positive response was recorded as the response latency. The response latency for each test session was defined as the mean response latency of all trials during which a positive response occurred. […]

Series [3] concerns male Wistar rats. The series can be described thus: Brain stimulation reward (ICSS) under baseline conditions, paroxetine and p-MPPI. The format is in vivo, rat. The method, then: Male Wistar rats (Charles River, Hollister, Calif.) (300-320 g at the start of the experiments) were housed in pairs in a temperature and humidity controlled environment with a 12 hr light/dark cycle. Food and water were available ad libitum. A different set of subjects was used for each experiment. All subjects were treated in accordance with the National Institutes of Health “Guide for the Care and Use of Laboratory Animals,” and the animal facilities and the experimental protocols were in accordance with the Association for the Assessment and Accreditation of Laboratory Animal Care. Most of the behavioral testing was conducted during the light phase of the subjects' light/dark cycle, unless otherwise dictated by the experimental design due to time-course assessment of behavioral parameters. Apparatus The experimental apparatus consisted of 16 Plexiglas chambers (30.5×30×17 cm) (Med Associates Inc., St. Albans, Vt.) encased in sound-attenuating boxes (San Diego Instruments, San Diego, Calif.). Each operant chamber consisted of a stainless steel grid floor and a metal wheel manipulandum located on one wall, which required a 0.2 N force to rotate it a quarter turn. Gold-contact swivel commutators and bipolar leads connected the animals in the stimulation circuit (Plastics One, Roanoke, Va.). Brain stimulation was administered by constant current stimulators (Stimtek 1200, San Diego Instruments, San Diego, Calif.). […] During a 2 sec period immediately following a positive response, further responses were recorded as extra responses but had no consequence. If no response occurred during the 7.5 sec limited hold period a negative response was recorded. […] Thus, during each session, four current-thresholds were recorded and the mean of these values was taken as the current-threshold for each subject for each test session. Response Latency: The latency between the onset of the non-contingent stimulus and a positive response was recorded as the response latency. […]

Another series concerns rats. Particulars: single high dose 120-300 mg/kg orally, rats (Ryan et al. 2001); cited from earlier work.
For series [4] the following is noted: Lemberger et al. 1985; Prakash and Foster 1999; cited from earlier work.

SMILES strings stand for the structures. Where a name gives a salt, the structure may show the parent alone.

Turning to `CNCCC(Oc1ccc(C(F)(F)F)cc1)c1ccccc1` (centres unmarked) [fluoxetine], the “duration of amphetamine withdrawal reward deficits” value in the series on male Wistar rats [1] is on record as “reduced the duration of the reward deficits”.

As for `Fc1ccc([C@@H]2CCNC[C@H]2COc2ccc3c(c2)OCO3)cc1` [paroxetine, Paroxetine hydrochloride], in the series with male Wistar rats [2], the “response latencies during withdrawal” value is reported as “significantly slower than those of either vehicle or p-MPPI treated rats”; the “return to baseline reward threshold levels before the amphetamine-withdrawing non-drug-treated rats” value turned out to be 24 h; the “body weight during amphetamine withdrawal” value is on record as “did not gain weight during withdrawal”; the reward thresholds entry is “Neither paroxetine (FIG. 4A & 4D) nor p-MPPI (FIG. 20B and 20E) had an effect on thresholds of saline-exposed animals”. Further, the brain reward thresholds entry in the series on male Wistar rats [3] (paroxetine 1.25-10 mg/kg, 120 min before test) is recorded as “had no statistically significant effect on thresholds”. Besides, the “body weight and food consumption” value in the series with rats is “produces a reduction in body weight and food consumption”. In addition, in series [4], the half-life result is recorded as “approximately 24 hours”.

Regarding `COc1ccccc1N1CCN(CCN(C(=O)c2ccc(I)cc2)c2ccccn2)CC1.Cl` [p-MPPI], in the series on male Wistar rats [2], the “response latencies during withdrawal” value is given as “had no effect on response latencies”; the “return to baseline reward threshold levels before the amphetamine-withdrawing non-drug-treated rats” value is 24 h; the “body weight during amphetamine withdrawal” value is “appeared to gain weight similarly to vehicle-treated rats”; the reward thresholds entry was “Neither paroxetine (FIG. 4A & 4D) nor p-MPPI (FIG. 20B and 20E) had an effect on thresholds of saline-exposed animals”. In addition, the reward thresholds entry with male Wistar rats [3] (p-MPPI 1, 3, 10 mg/kg alone) is “had no effect on reward thresholds”. The response latencies result in the series on male Wistar rats [3] (p-MPPI 1-10 mg/kg (Example 4.2)) is “had no effect on response latencies”.
